Structures can show the parent of a compound that is named as a salt. Where two headings read alike, the source gives them in different places.
Key:
[1] = test system: BACE1 promoter; experiment: BACE1 promoter activity, BACE1 promoter-luciferase vector, Dual-Luciferase assay; assay type: cell-based; settings: Homo sapiens, read-out: decrease of BACE1 promoter activity
Protocol: A BACE1 promoter-luciferase vector was transfected to brain nerve cells (SH-SY5Y). […] A change in a BACE1 promoter activity was measured using a Dual-Luciferase assay kit.

[2] = test system: BACE1 proteins; experiment: Amount of expression of BACE1 proteins in brain nerve cells (Western blot); assay type: cell-based, human; settings: SH-SY5Y cells, actin control
Protocol: As brain nerve cells, human neuroblastoma cells SH-SY5Y were used. […] The SH-SY5Y cells were plated at 5×10^5 cells/well into a 6-well plate. […] Then, the amount of expression of BACE1 proteins was determined by Western blot. Actin was used throughout as a control.

[3] = SH-SY5Y transfected with BACE1 promoter-luciferase vector, 10 μM for 24 hours
[4] = treated 24 hours at 0.625, 1.25, 2.5, 5 and 10 μM

Compound | inhibition at 10 µM [1, 3] [%] | further results
Clc1cnccn1 [2-chloropyrazine] | ≥ 50 | –
Cn1cnc([N+](=O)[O-])c1Sc1ncnc2nc[nH]c12 [azathioprine] | ≥ 50 | –
COc1cc2c(c(OC)c1OC)-c1ccc(OC)c(=O)cc1[C@@H](NC(C)=O)CC2 [colchicine] | – | inhibition at 10 µM ([1]; SH-SY5Y, 24 h): ≥ 50%
O=C1Nc2ccc(Cl)cc2[C@@](C#CC2CC2)(C(F)(F)F)O1 [efavirenz] | ≥ 50 | –
CCN(CC)C(=O)/C(C#N)=C/c1cc(O)c(O)c([N+](=O)[O-])c1 [entacapone] | ≥ 50 | –
CC(C)=CCC/C(C)=C/CC/C(C)=C/CO [farnesol] | ≥ 50 | amount of expression of BACE1 proteins ([2]; treated 24 hours at 0.001, 0.01 and 0.1 μM): decreased at 0.01 μM and 0.1 μM
COC(=O)Nc1nc2cc(Sc3ccccc3)ccc2[nH]1 [fenbendazole] | ≥ 50 | amount of expression of BACE1 proteins [2, 4]: decreased at 0.625 μM to 10 μM
CC1(C)O[C@@H]2C[C@H]3[C@@H]4C[C@H](F)C5=CC(=O)C=C[C@]5(C)[C@H]4[C@@H](O)C[C@]3(C)[C@]2(C(=O)CO)O1 [flunisolide] | ≥ 50 | –
COc1ccc2c(c1)[nH]c1c(C)nccc12 [harmine hydrochloride] | – | inhibition at 10 µM ([1]; SH-SY5Y, 24 h): ≥ 50%
CC[C@H](c1ccc(O)cc1)[C@@H](CC)c1ccc(O)cc1 [hexestrol] | ≥ 50 | –
COC(=O)Nc1nc2cc(C(=O)c3ccccc3)ccc2[nH]1 [mebendazole] | ≥ 50 | amount of expression of BACE1 proteins [2, 4]: decreased at 0.625 μM to 10 μM
CCN(CCCCOC(=O)c1ccc(OC)c(OC)c1)C(C)Cc1ccc(OC)cc1 (stereo not drawn) [mebeverine hydrochloride] | ≥ 50 | –
CC[C@@]1([C@@H]2O[C@@H]([C@H]3O[C@@](O)(CO)[C@H](C)C[C@@H]3C)C[C@@H]2C)CC[C@H]([C@]2(C)CC[C@]3(C[C@H](O)[C@@H](C)[C@@H]([C@@H](C)[C@@H](OC)[C@H](C)C(=O)O)O3)O2)O1 [monensin sodium salt] | ≥ 50 | –
CCCN(CCC)S(=O)(=O)c1ccc(C(=O)O)cc1 [probenecid] | ≥ 50 | –
O=C(c1ccc(OCCN2CCCCC2)cc1)c1c(-c2ccc(O)cc2)sc2cc(O)ccc12 [raloxifene hydrochloride] | ≥ 50 | –
Nc1ccc(S(=O)(=O)Nc2cnc3ccccc3n2)cc1 [sulfaquinoxaline sodium salt] | ≥ 50 | –
C=C(NC(=O)C(=C)NC(=O)c1csc(C2=N[C@@H]3c4csc(n4)[C@H]4NC(=O)c5csc(n5)[C@H]([C@](C)(O)[C@@H](C)O)NC(=O)[C@H]5CSC(=N5)/C(=C/C)NC(=O)[C@H]([C@@H](C)O)NC(=O)c5csc(n5)[C@]3(CC2)NC(=O)[C@H](C)NC(=O)C(=C)NC(=O)[C@H](C)NC(=O)[C@H]([C@@H](C)CC)N[C@@H]2C=Cc3c([C@H](C)O)cc(nc3[C@H]2O)C(=O)O[C@@H]4C)n1)C(N)=O [thiostrepton] | – | inhibition at 10 µM ([1]; SH-SY5Y, 24 h): ≥ 50%
CC[C@@]1(O)C(=O)OCc2c1cc1n(c2=O)Cc2cc3c(CN(C)C)c(O)ccc3nc2-1 [topotecan] | ≥ 50 | –
NC1CCN(c2nc3c(cc2F)c(=O)c(C(=O)O)cn3-c2ccc(F)cc2F)C1 (stereo not drawn) [tosufloxacin hydrochloride] | ≥ 50 | –
COc1cc(C(=O)NCc2ccc(OCCN(C)C)cc2)cc(OC)c1OC [trimethobenzamide hydrochloride] | ≥ 50 | –
CCCOc1ccccc1-c1nc2nn[nH]c2c(=O)[nH]1 [zaprinast] | ≥ 50 | –
